Laboratory results as given in patent US20120178738A1, “DIBENZO [B,F] [1,4]OXAZAPINE COMPOUNDS” (ARYX THERAPEUTICS, INC., priority 2007, published 2012).

Tests used:
[1] = biological target: T1, human D2S receptor (Homo sapiens, UniProt P14416); assay: Adenylyl cyclase (HitHunter cAMP XS) assay in HEK 293 cells expressing human D2S; type: cell-based
T1 construct: host or cells: HEK 293 cells

[2] = test system: apomorphine-induced disruption of swimming in mice; assay: Antagonism of apomorphine-induced disruption of swimming in mice; type: in vivo
Text: The antagonism of apomorphine-induced disruption of swimming in mice (Warawa, E. J. et al. (2001). Behavioral approach to nondyskinetic dopamine antagonists: identification of seroquel. J. Med. Chem., 44, 372-389) was used to assess test compounds. Apomorphine-treated mice fail to swim and remain in place, pawing the walls of the swimming chamber, or making abortive swims. Certain atypical antipsychotic compounds “normalize” the swimming behavior of such mice.
The animals (Swiss Webster, female, about 20 g; Charles River) were administered compounds of the invention (0.1 μg/kg-30 mg/kg ip) […] before they were dosed with apomorphine HCl at 1.25 mg/kg sc. Twenty seven minutes after test compound injection, and fifteen minutes after apomorphine injection, each mouse was placed into a circular swimming tank for 2 minutes and the number of “swims” were counted. The height of the tank is 15 cm and the diameter is 28 cm. A circular obstacle, 10.5 cm in diameter and 17 cm high was placed in the center of the tank creating a circular swimming channel 8.75 cm wide. The water level is 5.5 cm and the water was kept at room temperature (about 20° C.). Marks are placed on the floor and side of the tank 180 degrees apart. A “swim” was scored each time a mouse swims from one mark to the other and the median number of swims for all the mice was used as the score for that treatment.

[3] = test system: catalepsy in mice; assay: Catalepsy mouse model; type: in vivo; details: up to 30 mg/kg, IP
Protocol: A catalepsy mouse model was used to investigate a potential side effect of antipsychotic agents.
The catalepsy methodology used herein has been adapted from Tada, M. et al. ((2004). Psychopharmacol., 176, 94-100) as well as Wang et al. ((2000). J. Neurosci., 20, 8305-8314).
The animals (Swiss Webster, female, about 20 g; Charles River) were administered compounds of the invention (1 μg/kg-30 mg/kg ip). Twenty seven minutes after test compound injection, the mice's forepaws were placed on a horizontal steel bar (diameter 0.2 cm), elevated 3-5 cm above the tabletop and the time taken for the animals to remove both paws was recorded for up to 2 min.

T1 sequence (P14416 1-414 isoform P14416-2): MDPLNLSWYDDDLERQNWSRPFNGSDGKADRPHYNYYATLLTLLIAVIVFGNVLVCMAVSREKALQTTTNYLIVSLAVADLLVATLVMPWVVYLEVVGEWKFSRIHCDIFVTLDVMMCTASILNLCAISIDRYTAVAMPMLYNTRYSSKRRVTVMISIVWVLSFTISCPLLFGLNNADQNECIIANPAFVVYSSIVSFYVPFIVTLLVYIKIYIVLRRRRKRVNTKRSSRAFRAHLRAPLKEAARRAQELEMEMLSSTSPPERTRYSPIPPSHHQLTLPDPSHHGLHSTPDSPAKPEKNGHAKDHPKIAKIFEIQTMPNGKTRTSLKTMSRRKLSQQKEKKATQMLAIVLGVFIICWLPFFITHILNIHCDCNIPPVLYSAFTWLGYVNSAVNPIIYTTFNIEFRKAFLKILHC

SMILES	functional activity at human D2S receptor ([1]; HEK 293 cells, 27 μM forskolin (agonist) or plus 30 nM dopamine (antagonist))	IC50 ([1]; adenylyl cyclase assay, human D2S receptor, read-out: estimated IC50) [µM]	antagonizing the apomorphine-induced disruption of swimming, potency vs clozapine ([2]; ip, apomorphine HCl 1.25 mg/kg sc)	catalepsy [3]	reversal of apomorphine-induced disruption of swimming ([2]; 3 and 10 mg/kg)
CCOC(=O)C[C@H]1CN(C2=Nc3cc(Cl)ccc3Oc3ccccc32)CCN1 [Compound K, (S,E)-ethyl 2-(4-(8-chlorodibenzo[b,f][1,4]oxazepin-11-yl)piperazin-2-yl)acetate]	partial D2 receptor agonist and a D2 receptor antagonist	13	more potent than clozapine	did not cause catalepsy	
O=C(O)C[C@H]1CN(C2=Nc3cc(Cl)ccc3Oc3ccccc32)CCN1 [Compound Q, (S,E)-2-(4-(8-chlorodibenzo[b,f][1,4]oxazepin-11-yl)piperazin-2-yl)acetic acid]					reversed
